Data published in ChEMBL document CHEMBL1124293, “2,4-Diamino-6,7-dimethoxyquinoline derivatives as alpha 1-adrenoceptor antagonists and antihypertensive agents” (J Med Chem, 1988).

Assays:
[1] = molecular target: T1, Adrenergic receptor alpha-1 (Rattus norvegicus, UniProt P15823+P23944+P43140); assay: Binding affinity towards alpha-1 adrenergic receptor from rat brain homogenate preparation by displacement of [3H]prazosin; format: tissue-based
T1 sequence (P15823 whole entry): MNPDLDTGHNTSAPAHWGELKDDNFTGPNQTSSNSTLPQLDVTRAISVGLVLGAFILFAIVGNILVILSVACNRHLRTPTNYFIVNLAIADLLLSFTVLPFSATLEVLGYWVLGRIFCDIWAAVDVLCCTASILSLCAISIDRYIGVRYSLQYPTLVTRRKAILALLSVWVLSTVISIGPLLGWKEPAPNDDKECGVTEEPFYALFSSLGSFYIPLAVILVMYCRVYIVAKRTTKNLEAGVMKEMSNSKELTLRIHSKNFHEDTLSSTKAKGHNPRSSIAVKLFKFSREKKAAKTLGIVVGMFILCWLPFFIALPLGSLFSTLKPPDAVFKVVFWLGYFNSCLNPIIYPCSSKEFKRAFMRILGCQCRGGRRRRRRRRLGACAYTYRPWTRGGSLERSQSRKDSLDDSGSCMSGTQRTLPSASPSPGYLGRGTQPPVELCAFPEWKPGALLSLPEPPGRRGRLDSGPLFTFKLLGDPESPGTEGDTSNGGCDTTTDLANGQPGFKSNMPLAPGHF
T1 sequence (P23944 whole entry): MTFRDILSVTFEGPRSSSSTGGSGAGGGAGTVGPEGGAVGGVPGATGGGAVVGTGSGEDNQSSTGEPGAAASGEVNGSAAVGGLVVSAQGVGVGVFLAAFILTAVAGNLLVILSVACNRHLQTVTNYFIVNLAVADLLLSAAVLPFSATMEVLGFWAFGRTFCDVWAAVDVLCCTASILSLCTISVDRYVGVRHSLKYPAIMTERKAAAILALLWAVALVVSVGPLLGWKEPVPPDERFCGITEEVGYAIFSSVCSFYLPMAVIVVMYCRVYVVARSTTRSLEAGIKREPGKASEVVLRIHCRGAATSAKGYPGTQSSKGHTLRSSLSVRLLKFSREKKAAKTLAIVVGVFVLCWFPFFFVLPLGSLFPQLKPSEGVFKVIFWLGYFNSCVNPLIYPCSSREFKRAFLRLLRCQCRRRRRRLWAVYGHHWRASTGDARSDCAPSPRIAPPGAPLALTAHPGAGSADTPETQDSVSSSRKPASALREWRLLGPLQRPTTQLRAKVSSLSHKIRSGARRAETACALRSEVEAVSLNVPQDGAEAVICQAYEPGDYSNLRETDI
T1 sequence (P43140 whole entry): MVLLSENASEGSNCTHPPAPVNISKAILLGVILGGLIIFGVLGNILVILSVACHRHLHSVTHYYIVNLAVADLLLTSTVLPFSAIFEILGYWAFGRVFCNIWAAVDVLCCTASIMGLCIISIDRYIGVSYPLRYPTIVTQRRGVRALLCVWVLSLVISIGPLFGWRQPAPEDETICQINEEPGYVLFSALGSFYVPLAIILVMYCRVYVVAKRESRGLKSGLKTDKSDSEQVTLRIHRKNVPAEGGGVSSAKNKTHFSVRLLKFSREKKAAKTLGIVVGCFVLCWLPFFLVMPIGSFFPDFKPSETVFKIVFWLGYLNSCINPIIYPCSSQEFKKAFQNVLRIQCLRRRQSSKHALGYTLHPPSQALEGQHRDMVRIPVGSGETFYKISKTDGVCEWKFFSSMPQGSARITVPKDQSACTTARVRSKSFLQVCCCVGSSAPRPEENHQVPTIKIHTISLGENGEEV

[2] = molecular target: T2, Adrenergic receptor alpha-2 (Rattus norvegicus) (UniProt P22086+P19328+P22909); assay: Binding affinity towards alpha-2 adrenergic receptor from rat brain homogenate preparation by displacement of [3H]clonidine at 10e-6 M concentration; format: tissue-based
[3] = test system: Rattus norvegicus; assay: Percent reduction in Spontaneously hypertensive rat blood pressure after 1 h of 3 mg/kg, po administration; format: functional
[4] = test system: Rattus norvegicus; assay: Percent reduction in Spontaneously hypertensive rat blood pressure after 4.5 hr of 3 mg/kg, po administration; format: functional
[5] = test system: Rattus norvegicus; assay: Percent reduction in Spontaneously hypertensive rat blood pressure after 1 hr of 3 mg/kg, po administration; format: functional
[6] = molecular target: T3, Adrenergic receptor alpha-2 (Rattus norvegicus, UniProt P22086+P19328+P22909); assay: Binding affinity towards alpha-2 adrenergic receptor from rat brain homogenate preparation by displacement of [3H]clonidine; format: tissue-based
T3 sequence (P22086 whole entry): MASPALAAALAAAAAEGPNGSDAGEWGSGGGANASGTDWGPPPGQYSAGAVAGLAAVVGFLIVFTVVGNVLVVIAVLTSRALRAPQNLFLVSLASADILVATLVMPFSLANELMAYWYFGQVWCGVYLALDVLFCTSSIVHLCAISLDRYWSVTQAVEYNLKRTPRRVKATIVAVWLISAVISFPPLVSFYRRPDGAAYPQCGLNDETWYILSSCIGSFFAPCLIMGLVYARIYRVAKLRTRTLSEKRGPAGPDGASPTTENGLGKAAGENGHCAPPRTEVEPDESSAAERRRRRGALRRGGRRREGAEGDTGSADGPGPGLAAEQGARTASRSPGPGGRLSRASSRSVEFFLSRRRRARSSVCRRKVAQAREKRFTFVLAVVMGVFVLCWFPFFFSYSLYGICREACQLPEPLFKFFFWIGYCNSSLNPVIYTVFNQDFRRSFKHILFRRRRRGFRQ
T3 sequence (P19328 whole entry): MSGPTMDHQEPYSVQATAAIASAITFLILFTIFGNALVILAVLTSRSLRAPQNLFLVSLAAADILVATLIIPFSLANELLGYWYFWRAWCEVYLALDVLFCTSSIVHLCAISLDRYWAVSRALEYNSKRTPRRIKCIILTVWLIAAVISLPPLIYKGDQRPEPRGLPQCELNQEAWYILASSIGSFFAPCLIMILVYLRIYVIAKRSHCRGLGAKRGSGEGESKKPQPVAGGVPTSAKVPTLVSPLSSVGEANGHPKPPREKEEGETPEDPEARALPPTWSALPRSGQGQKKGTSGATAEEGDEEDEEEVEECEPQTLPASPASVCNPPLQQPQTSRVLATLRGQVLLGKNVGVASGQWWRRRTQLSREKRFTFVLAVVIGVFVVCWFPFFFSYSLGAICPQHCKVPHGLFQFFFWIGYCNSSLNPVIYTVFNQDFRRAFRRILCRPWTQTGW
T3 sequence (P22909 whole entry): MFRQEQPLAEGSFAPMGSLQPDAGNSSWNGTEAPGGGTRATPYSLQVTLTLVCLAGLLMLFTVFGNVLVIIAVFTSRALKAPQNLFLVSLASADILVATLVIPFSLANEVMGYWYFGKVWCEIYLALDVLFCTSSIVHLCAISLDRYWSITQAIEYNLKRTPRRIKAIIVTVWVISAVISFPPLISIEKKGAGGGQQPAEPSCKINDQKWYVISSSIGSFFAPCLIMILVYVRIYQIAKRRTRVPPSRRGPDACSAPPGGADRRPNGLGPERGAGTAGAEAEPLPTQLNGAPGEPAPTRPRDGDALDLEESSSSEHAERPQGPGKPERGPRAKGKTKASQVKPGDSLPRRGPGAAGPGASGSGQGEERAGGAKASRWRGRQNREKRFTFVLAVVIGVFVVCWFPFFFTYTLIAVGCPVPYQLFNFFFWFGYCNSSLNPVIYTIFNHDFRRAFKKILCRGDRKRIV

[7] = molecular target: T2, Adrenergic receptor alpha-2 (Rattus norvegicus); assay: Binding affinity towards alpha-2 adrenergic receptor from rat brain homogenate preparation by displacement of [3H]clonidine at 10e-6 M; format: tissue-based
[8] = molecular target: T2, Adrenergic receptor alpha-2 (Rattus norvegicus); assay: Binding affinity towards alpha-2 adrenergic receptor from rat brain homogenate preparation by displacement of [3H]clonidine at 10E-6 M; format: tissue-based

SMILES	Ki [1] [nM]	Displacement [2] [%]	Ki [6] [nM]	Displacement [7] [%]	Displacement [8] [%]	Reduction [3] [%]	Reduction [4] [%]	Reduction [5] [%]
COc1cc2nc(N3CCN(C(=O)c4ccco4)CC3)nc(N)c2cc1OC [PRAZOSIN]	–	–	–	–	–	24	15	–
COc1cc2nc(N3CCN(Cc4ccccc4)CC3)cc(N)c2cc1OC	–	–	–	–	–	8	10	–
COc1cc2nc(N3CCN(c4ccccc4)CC3)cc(N)c2cc1OC	1.72	–	51.6	–	–	8	24	–
CCOc1ccnc(N2CCN(c3cc(N)c4cc(OC)c(OC)cc4n3)CC2)n1	0.42	< 50	–	–	–	19	22	–
COc1cc2nc(N3CCN(C(=O)Nc4ccccc4)CC3)cc(N)c2cc1OC	0.34	–	66	–	–	20	25	–
COc1cc2nc(N3CCN(C(=O)c4ccccc4)CC3)cc(N)c2cc1OC	0.49	–	–	< 50	–	19	19	–
COc1cc2nc(N3CCN(c4nccc(N(C)C)n4)CC3)cc(N)c2cc1OC	0.46	–	55.3	–	–	16	19	–

Now from value to molecule, other results behind:

Ki [1] [nM]	Displacement [2] [%]	Ki [6] [nM]	Displacement [7] [%]	Displacement [8] [%]	SMILES	Reduction [3] [%]	Reduction [4] [%]	Reduction [5] [%]
0.63	< 50	–	–	–	COc1cc2nc(N3CCN(c4nccc(C)n4)CC3)cc(N)c2cc1OC	10	8	–
0.14	< 50	–	–	–	COc1cc2nc(N3CCN(C(=O)c4ccco4)CC3)cc(N)c2cc1OC	–	25	32
0.81	< 50	–	–	–	COc1cc2nc(N3CCN(C(=O)C4COc5ccccc5O4)CC3)cc(N)c2cc1OC (stereo not drawn)	6	13	–
0.44	< 50	–	–	–	CCCNC(=O)N1CCN(c2cc(N)c3cc(OC)c(OC)cc3n2)CC1	3	8	–
0.29	< 50	–	–	–	C=CCNC(=O)N1CCN(c2cc(N)c3cc(OC)c(OC)cc3n2)CC1	15	17	–
1.17	–	–	–	–	COc1cc2nc(N3CCN(C(C)=O)CC3)cc(N)c2cc1OC	4	7	–
2.93	< 50	–	–	–	COc1cc2nc(N3CCCCC3)cc(N)c2cc1OC	6	6	–
–	–	–	–	< 50	COc1cc2nc(N(C)C)cc(N)c2cc1OC	12	11	–
30.06	< 50	–	–	–	COc1cc2nc(N3CCNCC3)cc(N)c2cc1OC	11	14	–
